Legend:
Format in all cases: in vivo
[1] = Toxicity after intraperitoneal injection to mice; settings: 160 mg/kg body weight by intraperitoneal injection to mice
[2] = system: Lewis lung carcinoma cells (ATCC CRL-1642); experiment: Lewis lung carcinoma experiment in mice: lung weight and histological angiogenesis
Experimental: Lewis lung carcinoma cells (ATCC CRL-1642) were grown as a suspension culture in a medium with 4.5 g/l glucose with 10 % heat inactivated bovine serum in a 5 % CO2 humidified atmosphere at 37°C. The cells were subcultured by diluting cell suspensions 1:6. After harvesting by centrifugation and resuspension, the cells were counted in a counting chamber. The cells were resuspended with medium to a concentration of 10 million cells/ml.
Ten male specific pathogen free mice at an age of 6 weeks were maintained in autoclaved caves with filter tops in a barrier unit equipped with HEPA filters. Autoclaved bedding, irradiated feed and sterile filtered water was used. The temperature and humidity was kept constant (22 ± 2°C, 65 ± 5 % RH).
To each animal 0.1 ml of the cell suspension was inoculated subcutanousely in the right flank at day 0. After 15 days, osmotic minipumps (ALZET) were surgically placed subcutaneously into 5 animals while another 5 animals, sham operated, served as a control group.
Each minipump contained 226 µl of a solution of 0.4 g/ml of the sodium salt of 1-D-myo-inositol-1,2,6-trisphosphate (IP3). The minipumps gave a continous dosage of IP3 for 6 days.
The injection of lung carcinoma cells cause a formation of tumors and angiogenesis in lung tissue. The weight of the lungs after the experiment is considered as a measurement of the amount of tumor tissue which is formed.

glioma tumor tissue = experiment: Glioma tumor growth in mice after subcutaneous inoculation of rat glial cells, IP3 via osmotic minipumps
Experimental: Rat glial cells were grown in a stationary suspension culture in a medium supplemented with 15 % heat inactivated horse serum and 2.5 % heat inactivated fetal calf serum in a 5 % CO2 humidified atmosphere at 37°C.
The cells were harvested using trypsine solution and the concentration of cells were measured. The cells were centrifuged and resuspended to a concentration of 1 million cells/ml.
Twelve female specific pathogen free mice at an age of 12 weeks (weighing 20-25 g) were maintained in autoclaved cages with filter tops in horizontal air flow cabiners in a unit equipped with specific filters. Autoclaved bedding, irradiated feed and sterile water was used. The temperature and humidity was kept constant at 22 ± 2°C, 65 ± 5 % relative humidity.
To each animal 0.1 ml of the cellsuspension was inoculated subcutanousely in the right flank at day 0.
After five days, osmotic minipumps (ALZET) were surgically placed subcutanously into 7 animals, while 5 animals, shamoperated, served as a control group.
Each minipump contained approximately 200 µl of a solution of 1.0 g/2,5 ml of the sodium salt of 1-D-myo-inositol-1,2,6-trisphosphate (IP3). The minipumps gave a continous dosage of IP3 for 14 days.
The injection of glioma cells into the animals cause a growth of tumors. The growth of the tumors was examined by measuring two diameters along two perpendicular axes. The true tumor diameter was estimated as the diameter minus 0.5 mm (which is the thickness of the skin). Tumor area (A) was calculated by multiplying the two true diameters and tumor volume was calculated by the formula: /6 x A^3/2 x 0.67.

prostate tumor tissue = experiment: Prostate tumor growth in mice after subcutaneous injection of a specific cell type, IP3 via osmotic minipumps
From the text: In a procedure similar to the one described in example 2 prostate tumor growth was induced by subcutanous injection of a specific cell type to mice. One group of animals received IP3 via osmotic minipumps while another group of animals served as a control.

With `O=P(O)(O)O[C@@H]1[C@H](OP(=O)(O)O)[C@H](O)[C@@H](O)[C@H](O)[C@H]1OP(=O)(O)O` [IP3, D-myo-inositol-1,2,6-trisphosphate] the toxic effects [1] was “no toxic effects”, the “angiogenesis (histological examination)” value ([2]; IP3 minipump s.c. after 15 days, for 6 days, compared with sham operated animals) was “lower angiogenesis” and the mean lung weight ([2]; sodium salt of IP3 0.4 g/ml, 226 µl minipump s.c. after 15 days, continuous for 6 days, sham operated animals 0.312 g) was 0.198 g. The Tumor volume (glioma tumor tissue; Day 0 (inoculation; minipumps placed after five days)) was 0 mm^3, the Tumor volume (glioma tumor tissue; Day 10, sodium salt of IP3 1.0 g/2,5 ml, approx. 200 µl minipump s.c. from day 5, continuous for 14 days) was 115 mm^3 and the Tumor volume (glioma tumor tissue; Day 13, minipump s.c. from day 5, continuous for 14 days) was 270 mm^3. The Tumor volume (glioma tumor tissue; Day 15, minipump s.c. from day 5, continuous for 14 days) was 620 mm^3, the Tumor volume (glioma tumor tissue; Day 17, minipump s.c. from day 5, continuous for 14 days) was 880 mm^3 and the Tumor volume (glioma tumor tissue; Day 20, minipump s.c. from day 5, continuous for 14 days) was 2420 mm^3. The Tumor volume (prostate tumor tissue; Day 0) was 0 mm^3, the Tumor volume (prostate tumor tissue; Day 7) was 36 mm^3 and the Tumor volume (prostate tumor tissue; Day 10) was 62 mm^3. For the same compound, the Tumor volume (prostate tumor tissue; Day 17) was 51 mm^3, the Tumor volume (prostate tumor tissue; Day 24) was 95 mm^3 and the Tumor volume (prostate tumor tissue; Day 28) was 171 mm^3. For the same compound, the Tumor volume (prostate tumor tissue; Day 35) was 215 mm^3.
